Patent US20210046195A1, “FORMULATION AND METHOD OF PREPARATION” (GE HEALTHCARE AS, priority 2018, published 2021)
Bridge positions count the residues as written; N and C are the ends. Cy5∗∗ = not defined here

Experiments:
mouse cMet/Fc chimera = target: T1, mouse cMet/Fc chimera (Mus musculus, UniProt P16056); experiment: In vitro fluorescence polarisation assay, mouse cMet; format: binding; details: dye-labelled peptide 20 nM; mouse cMet/Fc chimera 0-150 nM (tested range)
T1 construct: Fc (immunoglobulin Fc fusion partner); purchased R&D Systems
T1 sequence (P16056 with tags, fused parts or gaps limits assumed): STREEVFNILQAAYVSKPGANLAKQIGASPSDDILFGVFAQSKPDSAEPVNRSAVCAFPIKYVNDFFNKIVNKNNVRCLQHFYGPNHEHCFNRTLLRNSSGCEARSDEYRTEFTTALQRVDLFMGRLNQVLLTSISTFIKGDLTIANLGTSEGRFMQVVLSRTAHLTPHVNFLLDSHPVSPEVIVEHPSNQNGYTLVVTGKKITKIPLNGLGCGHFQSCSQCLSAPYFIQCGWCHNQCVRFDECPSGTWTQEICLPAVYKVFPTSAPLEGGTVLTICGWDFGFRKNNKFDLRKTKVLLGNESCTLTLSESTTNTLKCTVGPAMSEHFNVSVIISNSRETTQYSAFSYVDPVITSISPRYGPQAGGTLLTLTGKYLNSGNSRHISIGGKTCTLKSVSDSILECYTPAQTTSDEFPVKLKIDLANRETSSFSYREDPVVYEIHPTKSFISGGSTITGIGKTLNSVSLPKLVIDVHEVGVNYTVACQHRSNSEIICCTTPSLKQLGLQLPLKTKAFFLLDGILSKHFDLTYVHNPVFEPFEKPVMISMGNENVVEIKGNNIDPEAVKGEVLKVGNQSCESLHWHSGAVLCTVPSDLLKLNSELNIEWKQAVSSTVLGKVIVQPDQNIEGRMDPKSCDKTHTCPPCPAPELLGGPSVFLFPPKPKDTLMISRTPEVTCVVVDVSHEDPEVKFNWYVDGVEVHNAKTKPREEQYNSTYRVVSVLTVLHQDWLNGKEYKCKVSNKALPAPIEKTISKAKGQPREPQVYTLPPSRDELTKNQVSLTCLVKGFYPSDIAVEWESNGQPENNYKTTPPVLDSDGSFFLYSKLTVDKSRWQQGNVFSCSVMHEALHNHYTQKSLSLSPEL
T1 sequence (P16056 25-306 limits assumed, change not shown): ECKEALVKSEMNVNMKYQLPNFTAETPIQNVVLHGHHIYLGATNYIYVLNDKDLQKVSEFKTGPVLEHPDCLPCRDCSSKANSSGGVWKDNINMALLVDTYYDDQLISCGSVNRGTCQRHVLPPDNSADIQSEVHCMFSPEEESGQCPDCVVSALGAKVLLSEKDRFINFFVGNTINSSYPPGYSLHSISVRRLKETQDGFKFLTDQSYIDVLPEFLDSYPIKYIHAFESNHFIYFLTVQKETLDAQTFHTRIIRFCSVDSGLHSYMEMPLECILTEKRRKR
Experimental: The principle of the fluorescence polarisation method can briefly be described as follows:
Monochromatic light passes through a […] polarizing filter and excites fluorescent molecules in the sample. Only those molecules that oriented properly in the vertically polarized plane adsorb light, become excited, and subsequently emit light. The emitted light is measured in both horizontal and vertical planes. The anisotropy value (A), is the ratio between the light intensities following the equation:
A=(Intensity with horizontal polarizer−Intensity with vertical polarizer)/(Intensity with horizontal polarizer+2* Intensity with vertical polarizer).
The fluorescence anisotropy measurements were performed in 384-well microplates in a volume of 10 μL in binding buffer (PBS, 0.01% Tween-20, pH 7.5) using a Tecan Safire fluorescence polarisation plate reader (Tecan, US) at ex646/em678 nm. The concentration of dye-labelled peptide was held constant (20 nM) and the concentrations of the human or mouse cMet/Fc chimera (R&D Systems) or Semaphorin 6A (R&D Systems) were varied from 0-150 nM. Binding mixtures were equilibrated in the microplate for 10 min at 30° C. The observed change in anisotropy was fit to the equation: […]

HCT-15 tumours = experiment: In vivo testing in HCT-15 tumour-bearing nude mice, fluorescence imaging through laparoscope; parameters: species or system BALB c/A nude (Bom) mice; details: 1 nmol per animal i.v.; excised tumour slice against normal colon
From the text: 54 Female BALB c/A nude (Bom) mice were used in the study. The use of the animals was approved by the local ethics committee. BALB c/A nude is an inbred immunocompromised mouse strain with a high take rate for human tumours as compared to other nude mice strains. The mice were 4 weeks old upon arrival and with a body weight of approx. 20 grams at the start of the study. The animals were housed in individually ventilated cages (IVC, Scanbur BK) with HEPA filtered air. The animals had ad libitum access to “Rat and Mouse nr. 3 Breeding” diet (Scanbur BK) and tap water acidified by addition of HCl to a molar concentration of 1 mM (pH 3.0).
The colon cancer cell HCT-15 is derived from human colon carcinomas and is reported to express cMet according to Zeng et al [Clin. Exp. Metastasis, 21, 409-417. (2004)]. The cell line was proven to be tumorigenic when inoculated subcutaneously into nude mice [Flatmark et al, Eur. J. Cancer 40, 1593-1598 (2004)]. […]
Imaging was performed through a clinical laparoscope adapted to use a light source to excite the reporter and a filtering system to extract the fluorescence component. […]
Standard exposure time for colon imaging was 10 s. […] The images were visually scored using the standard scoring system employed for receiver operating characteristic analysis.

Substance: Cys4-16, 6-14; Ac-Ala-Gly-Ser-Cys-Tyr-Cys-Ser-Gly-Pro-Pro-Arg-Phe-Glu-Cys-Trp-Cys-Tyr-Glu-Thr-Glu-Gly-Thr-Gly-Gly-Gly-Lys(Cy5)-NH2 (Ac-AGSCYCSGPPRFECWCYETEGTGGGK(Cy5)-NH2; disulfide 6-14, 4-16) [Compound 3]
- binding to mouse cMet (mouse cMet/Fc chimera): no binding

Substance: Ac-TGECTCPYWEFRPCECGSYSGAGGGK(ϵ-Cy5**)-NH2 (Ac-TGECTCPYWEFRPCECGSYSGAGGGK(Cy5∗∗)-NH2; cysteine pairing not given here; reading uncertain; also: printed as Ac-TGECTCPYWEFRPCECGSYSGAGGGK(ϵ-Cy5**)-NH2) [Compound 7, negative control]
- tumour to normal ratio (HCT-15 tumours): did not discriminate between tumour and background
- visual identification of tumour against background (HCT-15 tumours): nothing was discernible against background
